Reference: EP4813403A1, “USE OF GLP-1R/GIPR DOUBLE-TARGET AGONIST IN PREPARING ANIMAL DRUG” (Hangzhou Zhongmeihuadong Pharmaceutical Co., Ltd., priority 2023, dated 2025)

Assays:
cat GLP-1R = assay: Agonistic activity on GLP-1R of different species (LANCE Ultra cAMP assay): cat; type: cell-based; conditions: ratio of EC50 value of other species to human EC50 value
Method: CHO-K1 cells were seeded in a 6-well plate at 0.6×10^6 cells/well and incubated overnight in an incubator at a temperature of 37 °C and a carbon dioxide concentration of 5%. The next day, CHO-K1 cell media were replaced. Then two tubes A and B were prepared for each plasmid. 100 µL Opti-MEM was added to tube A, then 4 µL Lipofectamine™ 3000 was added and mixed uniformly. 100 µL Opti-MEM was firstly added to tube B, then 2 µg of one of the plasmids (human GLP-1R-pcDNA5 (+) plasmid, cat GLP-1R-pcDNA5 (+) plasmid, human GIPR-pcDNA5 (+) plasmid, cat GIPR-pcDNA5 (+) plasmid) was added and mixed uniformly, and 4 µL P3000™ was added to tube B and mixed uniformly (the ratio of plasmid to transfection reagent was 1 µg: 2 µL). The diluted solution in tube A was added to the diluted solution in tube B, mixed evenly, and incubated at room temperature for 15 minutes. […]
18-20 hours after transfection, human GLP-1R-CHO, cat GLP-1R-CHO, human GIPR-CHO, cat GIPR-CHO cells were resuspended in 1×Casein Stimulation Buffer (HBSS, 5 mM HEPES, 0.5 mM IBMX, 0.1% casein, pH7.4), and seeded into a 384-well cell culture plate at 9 µL/well (cell numbers being 2000, 2000, 1000, 2000 cells/well, respectively). […] The readings at 665 nm and 620 nm were determined with a 330 nm excitation light on a microplate reader. The 665 nm/620 nm reading ratio was calculated. […]

[1] = Repeated administration on male rats for 2 weeks (toxicity, toxicokinetics); type: in vivo, SD male rats; conditions: for MTD: MTD for 2 weeks, rats; for dose at which decrease of the body weight was observed after the first administration / accumulation (toxicokinetic) / MTD at 336 h: SD male rats; for Gross Anatomy: SD male rats, 1, 3, 10 mg/kg twice a week for 2 weeks; for accumulation (toxicokinetic) / MTD at 336 h: administered twice a week for 2 weeks; for MTD at 336 h: Sprague-Dawley; for MTD at 336 h / safety window (based on exposure), times of that of Tirzepatide: rat, in vivo; for Safety Window (based on dosage): rat 2-week MTD versus efficacy dose
Method: 77 SD male rats (SPF grade) were selected and randomly divided into 10 groups based on body weight. Group 1 was the vehicle control group, including 5 animals. […] Group 5 to Group 7 were the groups administrated with the test substance 1; and Group 8 to Group 10 were the groups administrated with the test substance 2, each group including 8 animals, wherein 5 animals for primary test, and 3 animals for toxicokinetics test, and the administration dose was 1, 3 and 10 mg/kg respectively. Each of the above groups was continuously administered twice a week for 2 weeks (administrating at Day 1, Day 5, Day 8, Day 12 and Day 15).
During the experiment, the cage condition monitoring, detailed clinical observations, determination of the food consumption, determination of body weight, measurement of the blood biochemical and hematology indicator, investigation of the gross anatomy, weighing of the organ, studying on toxicokinetic were performed on all the groups of the animals.
Original data during each time period was tabulated. The average values and standard deviations and/or group change were calculated for each assay endpoint based on the group and sex. For each endpoint, the administrated group will be compared with the control group in the following aspect. A logarithmic conversion was performed to the endpoint data as desired prior to the start of the specific analyses.

rat GIPR = target: T1, rat GIPR (Rattus norvegicus, UniProt P43219); assay: Agonistic activity on GIPR of different species (LANCE Ultra cAMP assay): rat; type: cell-based; conditions: ratio of EC50 value of other species to human EC50 value
T1 construct: expressed in transfected cells; host or cells: CHO-K1 (transient)
T1 sequence (P43219 19-455): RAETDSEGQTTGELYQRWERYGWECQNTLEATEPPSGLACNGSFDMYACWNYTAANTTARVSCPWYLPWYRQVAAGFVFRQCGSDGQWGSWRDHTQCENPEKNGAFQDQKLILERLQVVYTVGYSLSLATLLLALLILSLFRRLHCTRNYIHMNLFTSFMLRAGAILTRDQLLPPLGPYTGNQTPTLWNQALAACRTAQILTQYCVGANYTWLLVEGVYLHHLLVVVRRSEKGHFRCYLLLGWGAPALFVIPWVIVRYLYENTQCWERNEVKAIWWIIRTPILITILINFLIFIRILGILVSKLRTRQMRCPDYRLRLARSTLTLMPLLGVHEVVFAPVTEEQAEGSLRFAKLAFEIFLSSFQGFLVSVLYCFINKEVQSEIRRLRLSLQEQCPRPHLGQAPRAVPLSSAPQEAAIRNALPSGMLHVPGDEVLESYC

human GLP-1R = human GLP-1R (Homo sapiens, UniProt P43220); assay: Agonistic activity on GLP-1R of different species (LANCE Ultra cAMP assay): human; type: cell-based; set-up: expressed in transfected cells; host or cells: HEK293/CRE/GLP-1R clonal cells; conditions: ratio of EC50 value of other species to human EC50 value
Chain of human GLP-1R (P43220 24-463): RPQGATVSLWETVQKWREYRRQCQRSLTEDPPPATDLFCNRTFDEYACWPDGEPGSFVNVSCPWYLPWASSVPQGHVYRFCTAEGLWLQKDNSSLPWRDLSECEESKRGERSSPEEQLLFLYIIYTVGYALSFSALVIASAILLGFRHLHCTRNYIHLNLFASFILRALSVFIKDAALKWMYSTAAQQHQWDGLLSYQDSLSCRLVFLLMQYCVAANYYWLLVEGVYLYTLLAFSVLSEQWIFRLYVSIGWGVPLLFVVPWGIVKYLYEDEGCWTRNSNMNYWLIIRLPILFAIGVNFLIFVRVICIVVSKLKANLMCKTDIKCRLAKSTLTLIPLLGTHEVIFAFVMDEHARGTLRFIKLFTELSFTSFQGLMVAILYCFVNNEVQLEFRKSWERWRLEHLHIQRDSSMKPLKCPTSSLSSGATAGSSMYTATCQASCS

CC[C@H](C)[C@H](NC(=O)C(C)(C)NC(=O)[C@H](Cc1ccc(O)cc1)NC(=O)[C@H](CC(=O)O)NC(=O)[C@H](CO)NC(=O)[C@@H](NC(=O)C(C)(Cc1ccccc1)NC(=O)[C@@H](NC(=O)CNC(=O)[C@H](CCC(=O)O)NC(=O)C(C)(C)NC(=O)[C@@H](N)Cc1ccc(O)cc1)[C@@H](C)O)[C@@H](C)O)C(=O)NC(C)(C)C(=O)N[C@@H](CC(C)C)C(=O)N[C@@H](CC(=O)O)C(=O)N[C@@H](CCCCN)C(=O)N[C@@H](CCC(N)=O)C(=O)N[C@@H](C)C(=O)N[C@@H](CCC(N)=O)C(=O)N[C@@H](C)C(=O)N[C@@H](CCC(=O)O)C(=O)N[C@@H](Cc1ccccc1)C(=O)N[C@H](C(=O)N[C@@H](CCCCNC(=O)COCCOCCNC(=O)COCCOCCNC(=O)COCCOCCNC(=O)CC[C@H](NC(=O)CCCCCCCCCCCCCCCCCCCCC(=O)O)C(=O)O)C(=O)N[C@@H](Cc1c[nH]c2ccccc12)C(=O)N[C@@H](CC(C)C)C(=O)N[C@@H](CC(C)C)C(=O)N[C@@H](CCCCN)C(=O)NCC(=O)NCC(=O)N1CCC[C@H]1C(=O)N[C@@H](CO)C(=O)N[C@@H](CO)C(=O)NCC(=O)N[C@@H](C)C(=O)N1CCC[C@H]1C(=O)N1CCC[C@H]1C(=O)N1CCC[C@H]1C(=O)N[C@@H](CO)C(=O)N[C@@H](CCCCN)C(N)=O)C(C)C (some centres unmarked) [Compound P016]
GLP-1R EC50 ratio (cat GLP-1R): 2.98
MTD [1]: 1924 nmol/kg (MTD for 2 weeks)
dose at which decrease of the body weight was observed after the first administration [1]: ≥ 1 mg/kg
Gross Anatomy [1]: no abnormalities were found
accumulation (toxicokinetic) [1]: no substantial accumulation
MTD at 336 h [1]: ≥ 10 mg/kg
Safety Window (based on dosage) [1]: 1282
safety window (based on exposure), times of that of Tirzepatide [1]: more than 7 times
GIPR EC50 ratio (rat GIPR): 2.22
GLP-1R EC50 ratio (human GLP-1R): 1.00

CC[C@H](C)[C@H](NC(=O)C(C)(C)NC(=O)[C@H](Cc1ccc(O)cc1)NC(=O)[C@H](CC(=O)O)NC(=O)[C@H](CO)NC(=O)[C@@H](NC(=O)C(C)(Cc1ccccc1)NC(=O)[C@@H](NC(=O)CNC(=O)[C@H](CCC(=O)O)NC(=O)C(C)(C)NC(=O)[C@@H](N)Cc1ccc(O)cc1)[C@@H](C)O)[C@@H](C)O)C(=O)NC(C)(C)C(=O)N[C@@H](CC(C)C)C(=O)N[C@@H](CC(=O)O)C(=O)N[C@@H](CCCCN)C(=O)N[C@@H](CCC(N)=O)C(=O)N[C@@H](C)C(=O)N[C@@H](CCC(N)=O)C(=O)N[C@@H](C)C(=O)N[C@@H](CCC(=O)O)C(=O)N[C@@H](Cc1ccccc1)C(=O)N[C@H](C(=O)N[C@@H](CCCCNC(=O)COCCOCCNC(=O)COCCOCCNC(=O)CC[C@H](NC(=O)CCCCCCCCCCCCCCCCCCCCC(=O)O)C(=O)O)C(=O)N[C@@H](Cc1c[nH]c2ccccc12)C(=O)N[C@@H](CC(C)C)C(=O)N[C@@H](CC(C)C)C(=O)N[C@@H](CCCCN)C(=O)NCC(=O)NCC(=O)N1CCC[C@H]1C(=O)N[C@@H](CO)C(=O)N[C@@H](CO)C(=O)NCC(=O)N[C@@H](C)C(=O)N1CCC[C@H]1C(=O)N1CCC[C@H]1C(=O)N1CCC[C@H]1C(=O)N[C@@H](CO)C(=O)N[C@@H](CCCCN)C(N)=O)C(C)C (some centres unmarked) [Compound P014]
MTD [1]: 1980 nmol/kg (MTD for 2 weeks)
dose at which decrease of the body weight was observed after the first administration [1]: ≥ 1 mg/kg
Gross Anatomy [1]: no abnormalities were found
accumulation (toxicokinetic) [1]: no substantial accumulation
MTD at 336 h [1]: ≥ 10 mg/kg
Safety Window (based on dosage) [1]: 1319
safety window (based on exposure), times of that of Tirzepatide [1]: more than 4 times
